This experiment has as its system ERISU (Conyza sumatrensis, Sumatran fleabane). In words: Greenhouse post-emergence foliar weed control trial, visual injury score 0-100 percent. It is filed as in vivo. The note with it: 400 gai/ha. An excerpt:
Results in Examples are greenhouse trial results.
Seeds or nutlets of the desired test plant species were planted in a soil matrix prepared by mixing a loam or sandy loam soil (e.g., 28.6 percent silt, 18.8 percent clay, and 52.6 percent sand, with a pH of about 5.8 and an organic matter content of about 1.8 percent) and calcareous grit in an 80 to 20 ratio. The soil matrix was contained in plastic pots with a volume of 1 quart and a surface area of 83.6 cm2. When required to ensure good germination and healthy plants, a fungicide treatment and/or other chemical or physical treatment was applied. The plants were grown for 8-22 days in a greenhouse with an approximate 14 h photoperiod which was maintained at about 29° C. during the day and 26° C. during the night. Nutrients (Peters Excel® 15-5-155-Ca 2-Mg and iron chelate) were applied in the irrigation solution as needed and water was added on a regular basis. Supplemental lighting was provided with overhead metal halide 1000-Watt lamps as necessary. The plants were employed for testing when they reached the first through fourth true leaf stage.
Treatments comprised of the acid or esters of halauxifen-methyl (methyl 4-amino-3-chloro-6-(4-chloro-2-fluoro-3-methoxyphenyl)picolinate), each formulated as an SC (suspension concentrate), and various herbicidal components alone and in combination. A form of the compound of Formula I were applied on an acid equivalent basis.
Treatment requirements were calculated based upon the rates being tested, the concentration of active ingredient or acid equivalent in the formulation, and a 12 mL application volume at a rate of 187 L/ha.
For treatments comprised of formulated and technical compounds, weighed amounts of the technical materials were placed individually in 25 mL glass vials and dissolved in a volume of 97:3 v/v acetone/DMSO to obtain 12× stock solutions, and measured amounts of the formulated compounds were placed individually in 25 mL glass vials and diluted in a volume of 1.5% (v/v) crop oil concentrate or water to obtain 12× stock solutions. […] As required, additional water and/or 97:3 v/v acetone/DMSO was added to individual application solutions so that the final acetone and DMSO concentrations of the application solutions being compared were 8.1% and 0.25%, respectively.
All stock solutions and applications solutions were visually inspected for compound compatibility prior to application. Spray solutions were applied to the plant material with an overhead Mandel track sprayer equipped with an 8002E nozzle calibrated to deliver 187 L/ha over an application area of 0.503 m2 at a spray height of 18 to 20 inches (46 to 50 cm) above average plant canopy height. Control plants were sprayed in the same manner with the solvent blank.
The treated plants and control plants were placed in a greenhouse as described above and watered by sub-irrigation to prevent wash-off of the test compounds. […]
Table 1 illustrates weed control for foliar applications of compositions comprising halauxifen-methyl+2,4-D-dimethylammonium (2,4-D-DMA)+paraquat on various broadleaf weeds. […] The compositions disclosed herein can be used in burndown and fallow crop applications or in herbicide tolerant crops. These compositions can be used for broad-spectrum control of broadleaf weeds including, but not limited to, ALS, auxinic, HPPD, PPO, glufosinate and glyphosate resistant broadleaf weeds. The compositions disclosed herein can have utility in AAD1 and AAD12 monocot and dicot crops whereby there is crop tolerance to all 3 modes of action, providing growers with a solution to control susceptible and resistant broadleaf weeds, as well as to delay the development of resistance by the use of 3 modes of action product. The compositions disclosed herein can be used in non-crop and R&P/IVM situations, post directed in perennial crops, and potentially across many crops where there is tolerance to all 3 modes of action.

As for `C[n+]1ccc(-c2cc[n+](C)cc2)cc1` [paraquat, 1-methyl-4-(1-methylpyridin-1-ium-4-yl)pyridin-1-ium], the “Chem 2 Actual Mean % Weed Control” value is on record as 32.50% (Trial 1, 17DAA); 52.50% (Trial 1, 28DAA); 60.00% (Trial 1, 43DAA); 52.50% (Trial 2, 17DAA); 55.00% (Trial 2, 28DAA); 65.00% (Trial 2, 43DAA).

The record behind these values is patent US20220015362A1, “COMPOSITIONS COMPRISING HALAUXIFEN AND OTHER HERBICIDES AND METHODS THEREOF” (DOW AGROSCIENCES LLC, priority 2018, published 2022).
